Reference: article PMC10671849, “Synthesis and Evaluation of Marine-Inspired Compounds Result in Hybrids with Antitrypanosomal and Antileishmanial Activities” (Marine Drugs, 2023)

assay: Cytotoxicity MTT assay on PMA-differentiated THP-1 macrophages; type: cell-based; details: human; PMA-differentiated THP-1 macrophages, 72 h, MTT; 100 to 12.5 µM tested; read-out: Cytotoxicity CC50 (µM) 95% CI, THP-1
Protocol: A human leukemia cell line, THP-1 (ATCC® TIB-202™), was cultured in RPMI-1640 medium supplemented with 10% heat-inactivated fetal bovine serum (FBS), 2 mM L-glutamine, 100 IU/mL penicillin/streptomycin, and 20 mM HEPES. The cell line was maintained in a humidified incubator at 37 °C and 5% CO2 by subculture every 3 days in 20 mL of media at a concentration of 2 × 10^5/mL in a T75 flask. All cell culture reagents were purchased from Lonza-Bioscience (Morrisville, NC, USA).
The cytotoxicity effect of compounds on THP-1-derived macrophages was assessed by colorimetric MTT assay (3-(4,5-dimethylthiazol-2-yl)-2,5-diphenyl tetrazolium bromide). Briefly, THP-1 cells were suspended in RPMI complete medium at a density of 1 × 10^6 cells/mL and 100 μL/well and were seeded in a 96-well plate and differentiated into macrophages by addition of 40 ng/mL of phorbol-myristate 13-acetate (PMA, Sigma, Saint Louis, MI, USA) for 24 h, followed by replacement with fresh medium for 24 more h. Subsequently, the cells were incubated with 100 μL of compounds ranging from 100 to 12.5 μM after dilution in the RPMI complete medium. Each condition was carried out in quadruplicate. After 72 h of incubation at 37 °C and 5% CO2, the medium was removed, and 200 μL of 0.5 mg/mL MTT solution diluted in RPMI was added. The plates were incubated for an additional 4 h. Then, 160 μL of media was removed, and the same volume of 2-propanol was added. Absorbance was read at 570 nm using a Synergy 2 Multi-Mode Reader (Biotek, Winooski, VT, USA). Cytotoxicity was evaluated by the determination of the CC50 value (drug concentration that reduced the percentage of viable cells by 50%) and calculated by non-linear regression analysis using GraphPad Prism software, version 8.1.1 for Windows (GraphPad Software, San Diego, CA, USA). The results represent the average of at least three independent experiments. For each compound, the selectivity index (SI) was calculated as the ratio between cytotoxicity in THP-1 (CC50, 72 h) and activity against parasites (IC50, 72 h).

Compound	CC50 at 72 h
C=CCc1cc(Cn2cc(C(=O)Nc3ccccc3C(N)=O)nn2)c(O)c(OC)c1 [9a, 1-(5-allyl-2-hydroxy-3-methoxybenzyl)-N-(2-carbamoylphenyl)-1H-1,2,3-triazole-4-carboxamide]	> 100 µM
C=CCc1cc(Cn2cc(C(=O)Nc3ccc(OC)cc3C(N)=O)nn2)c(O)c(OC)c1 [9b, 1-(5-allyl-2-hydroxy-3-methoxybenzyl)-N-(2-carbamoyl-4-methoxyphenyl)-1H-1,2,3-triazole-4-carboxamide]	> 100 µM
C=CCc1cc(Cn2cc(C(=O)Nc3ccc(F)cc3C(N)=O)nn2)c(O)c(OC)c1 [9c, 1-(5-allyl-2-hydroxy-3-methoxybenzyl)-N-(2-carbamoyl-4-fluorophenyl)-1H-1,2,3-triazole-4-carboxamide]	45.8 µM
C=CCc1cc(Cn2cc(C(=O)Nc3ccc(Cl)cc3C(N)=O)nn2)c(O)c(OC)c1 [9d, 1-(5-allyl-2-hydroxy-3-methoxybenzyl)-N-(2-carbamoyl-4-chlorophenyl)-1H-1,2,3-triazole-4-carboxamide]	> 100 µM
C=CCc1cc(Cn2cc(-c3nc4ccccc4c(=O)[nH]3)nn2)c(O)c(OC)c1 [10a, 2-(1-(5-allyl-2-hydroxy-3-methoxybenzyl)-1H-1,2,3-triazol-4-yl)quinazolin-4(3H)-one]	> 100 µM
C=CCc1cc(Cn2cc(-c3nc4ccc(OC)cc4c(=O)[nH]3)nn2)c(O)c(OC)c1 [10b, 2-(1-(5-allyl-2-hydroxy-3-methoxybenzyl)-1H-1,2,3-triazol-4-yl)-6-methoxyquinazolin-4(3H)-one]	> 100 µM
C=CCc1cc(Cn2cc(-c3nc4ccc(F)cc4c(=O)[nH]3)nn2)c(O)c(OC)c1 [10c, 2-(1-(5-allyl-2-hydroxy-3-methoxybenzyl)-1H-1,2,3-triazol-4-yl)-6-fluoroquinazolin-4(3H)-one]	> 100 µM
C=CCc1ccc(O)c(OC)c1 [Eugenol, eugenol, reference compound]	> 100 µM
C=CCc1ccc(OCc2cn(CC(=O)Nc3ccccc3C(=O)O)nn2)c(OC)c1 [compound 13, 2-(2-(4-((4-allyl-2-methoxyphenoxy)methyl)-1H-1,2,3-triazol-1-yl)acetamido) benzoic acid]	> 100 µM
C=CCc1cc(Cn2cc(-c3nc4ccccc4c(=O)o3)nn2)c(O)c(OC)c1 [compound 14, 2-(1-(5-allyl-2-hydroxy-3-methoxybenzyl)-1H-1,2,3-triazol-4-yl)-4H-benzo[d][1,3]oxazin-4-one]	> 100 µM
